Literature values, collected in patent US4168274A, “Production of a peracid and an oxirane” (priority 1975, dated 1979).

conditions: Table I, carboxylic acids and solvents, symbols .infin., v, s, δ

solubility in water | SMILES
δ | CCCCCC(=O)O [caproic]
δ | CCCl [chloroethane]
δ | CCCOCCC [di n-propyl ether]
δ | CCOC(=O)CC [ethyl propionate]
δ | CCCCCCC(=O)O [n.heptoic]

SMILES | solubility in water
O=[N+]([O-])c1ccccc1 [nitrobenzene] | δ
CC(Cl)CCl (centres unmarked) [propylene dichloride] | δ
ClC(Cl)C(Cl)Cl [tetrachloroethane] | δ
